For data set [1], the target named is HIV-1 integrase (Human immunodeficiency virus type 1 group M subtype B, UniProt P04585). The experiment in a line: HIV-1 integrase inhibition assay (microtiter plate, immobilised substrate DNA, Dig-labelled target DNA, OD 405 nm). The conditions noted are these: for IC50: concentration of the compound at percent inhibition 50%, MnCl2 buffer, 30° C., 1 hour. Format: biochemical. As for the experimental part:
Substrate DNA and target DNA, which sequences were indicated below, were synthesized by Amersham Pharmacia Biotech and dissolved in KTE buffer (composition: 100 mM KCl, 1 mM EDTA, 10 mM Tris-HCl (pH 7.6)) at concentration of 2 pmol/μl and 5 pmol/μl, respectively. The DNA solutions were annealed with each complement by slowly cooling after heating.
Streptavidin, obtained from Vector Laboratories, was dissolved in 0.1 M carbonate buffer (composition: 90 mM Na2CO3, 10 mM NaHCO3) at concentration of 40 μg/ml. After coating each well of microtiter plates (obtained from NUNC) with 50 μl of the above solution at 4° C. overnight, each well was washed twice with PBS (composition: 13.7 mM NaCl, 0.27 mM KCl, 0.43 mM Na2HPO4, 0.14 mM KH2PO4) and blocked with 300 μl of 1% skim milk in PBS for 30 min. Additionally, each well was washed twice with PBS and added 50 μl of substrate DNA solution (2 pmol/μl). The microtiter plates were kept at room temperature for 30 min. Then, each well was washed twice with PBS and once with H2O.
Subsequently, in the each well prepared above were added 45 μl of the reaction buffer prepared from 12 μl of the buffer (composition: 150 mM MOPS (pH 7.2), 75 mM MnCl2, 50 mM 2-mercaptoethanol, 25% glycerol, 500 μg/ml bovine serum albumin-fraction V), 1 μl of target DNA (5 pmol/μl), and 32 μl of the distilled water. Additionally, 6 μl of either a test compound in DMSO or DMSO for positive control(PC) was mixed with the above reaction buffer, then 9 μl of an integrase solution (30 pmol) was added and mixed well. In the well of negative control (NC) was added 9 μl of the integrase dilution buffer (composition: 20 mM MOPS (pH7.2), 400 mM potassium glutamate, 1 mM EDTA, 0.1% NP-40, 20% glycerol, 1 mM DTT, 4M urea).
The microtiter plates were incubated at 30° C. for 1 hour. The reaction solution was removed and each well was washed twice with PBS. Subsequently, each well of the microtiter plates was filled with 100 μl of anti-digoxigenin antibody labeled with alkaline phosphatase (Sheep Fab fragment: obtained from Boehringer) and incubated at 30° C. for 1 hour. Then, each well was washed twice with 0.05% Tween20 in PBS and once with PBS. Next, 150 μl of the Alkaline phosphatase reaction buffer (composition: 10 mM p-Nitrophenylphosphate (obtained from Vector Laboratories), 5 mM MgCl2, 100 mM NaCl, 100 mM Tris-HCl (pH 9.5)) was added in each well. […] The optical density (OD) at 405 nm of each well was measured and the percent inhibition was determined by the following expression.
The percent inhibition (%)=100[1-{(C abs.−NC abs.)/(PC abs.−NC abs.)}]
When the percent inhibition (%) is X % at the concentration of x μg/ml and the percent inhibition (%) is Y % at the concentration of y μg/ml, one of which is more than 50% and the other is less than 50%, IC50 can be determined by the following expression.
IC50(μg/ml)=x-{(X-50)(x-y)/(X-Y)}
Compound No. in the Table 1 is the same as compound No. of the above example.

Data set [2] can be described thus: UV spectrum measurement with stepwise addition of Mg2+ solution (chelate formation). The data set is classed as physicochemical. The conditions noted are these: compound 0.05 mmol/l, Mg2+ 0 to 3.6 mol/l, 240 nm to 500 nm, cell length 1 cm. As for the experimental part: Compounds C-1, D-2, D-5 and D-6 were employed to determine UV spectra with treating dropwise with metal solutions.
The UV spectrum measurement was conducted with the cell length of 1 cm at a wavelength of 240 nm to 500 nm. Each test solution was obtained by preparing Solutions A^1, A2, B and C as shown below, adding an indicated volume of Solution A^1 or A2 to 1 ml of Solution B, making the total, volume 10 ml with Solution C. The concentrations of Compounds C-1, D-2, D-5 and D-6 in test solutions here were all adjusted at 0.05 mmol/l, and the concentrations of Mg^2+ were as indicated in Table 5.
Solution A1: MgCl2 4 mol/l, MOPS 50 mmol/l, NaOH 23.6 mmol/l, Solvent: Water
Solution A2: MgCl2 1 mol/l, MOPS 50 mmol/l, NaOH 23.6 mmol/l, Solvent: Water
Solution B: Compound 1 0.5 mmol/l, Solvent: DMSO
Solution C: NaCl 3 mol/l, MOPS 50 mmol/l, 23.6 mmol/l, Solvent: Water
For the purpose of indicating the change in the UV spectrum as a result of the increase in the metal ion concentration, one figure contained each UV spectrum curve at various metal ion concentrations.

A short description of data set [3]: UV spectrum measurement with monovalent ions Na+ and K+. Format: physicochemical.

pIC50: −log10 of the molar value. Where two headings read alike, the source gives them in different places.

A word on the pIC50: it is the negative decadic logarithm of the IC50, by convention in mol/L. Lower therefore signals a high IC50. As for `O=C(O)/C(O)=C/c1cc(CCc2ccccc2)ncn1` [Compound C-1], the pIC50 in data set [1] is 5.26. The “change in the UV spectrum curve as the metal ion concentration was increased” value in data set [2] is 2-step change. Besides, the “change in the UV spectrum curve” value in data set [3] was “almost no change”.

By IC50 is commonly meant the concentration that inhibits the measured activity by half. For the compound `O=C(O)C(O)=Cc1ccnc(CCc2ccccc2)c1` [Compound D-5], the IC50 in data set [1] is greater than 100 µg/mL. For the same compound, in data set [2], the “change in the UV spectrum curve as the metal ion concentration was increased” value is 1-step change.

In the case of `OC(=Cc1cc(CCc2ccccc2)ncn1)c1ccccc1` [Compound D-6], the pIC50 in data set [1] was less than 3.48. Also, the “change in the UV spectrum curve as the metal ion concentration was increased” value in data set [2] is 1-step change.

Consider `O=C(O)/C=C/c1cc(CCc2ccccc2)ncn1` [Compound D-2], for which the IC50 in data set [1] is greater than 100 µg/mL. Further, the “change in the UV spectrum curve as the metal ion concentration was increased” value in data set [2] was “no change”.

The values above are taken from US20040039060A1, “Inhibitor for enzyme having two divalent metal ions as active centers” (priority 2000, published 2004).
